# Source: ChEMBL document CHEMBL6087485, “Novel 3-Sulfonamide Dual-Tail Pyrrol-2-one Bridged Molecules as Potent Human Carbonic Anhydrase Isoform Inhibitors: Design, Synthesis, Molecular Modeling Investigation, and Anticancer Activity in MeWo, SK-BR-3, and MG-63 Cell Lines” (J Med Chem, 2025)
# pIC50, pKi: −log10 of the molar value. Active and inactive are the calls of the source. The rule behind the calls is not given here.
# Key:
# Carbonic anhydrase 9 = Carbonic anhydrase 9 (Homo sapiens, UniProt Q16790); assay: Inhibition of recombinant human CA-IX incubated for 15 mins by phenol red dye based stopped-flow CO2 hydration assay
# MeWo [1] = assay: Cytotoxicity against human MeWo cells at 10 uM incubated for 24 hrs by MTS assay; format: functional, cell-based
# SK-BR-3 [2] = assay: Cytotoxicity against human SK-BR-3 cells at 10 uM incubated for 24 hrs by MTS assay; format: functional, cell-based
# MG-63 [3] = assay: Cytotoxicity against human MG-63 cells at 10 uM incubated for 24 hrs by MTS assay; format: functional, cell-based
# [4] = Cytotoxicity against human HGF cells at 10 uM incubated for 24 hrs by MTS assay; format: toxicity, cell-based
# MeWo [5] = assay: Cytotoxicity against human MeWo cells at 50 uM incubated for 24 hrs by MTS assay; format: functional, cell-based
# SK-BR-3 [6] = assay: Cytotoxicity against human SK-BR-3 cells at 50 uM incubated for 24 hrs by MTS assay; format: functional, cell-based
# MG-63 [7] = assay: Cytotoxicity against human MG-63 cells at 50 uM incubated for 24 hrs by MTS assay; format: functional, cell-based
# [8] = Cytotoxicity against human HGF cells at 50 uM incubated for 24 hrs by MTS assay; format: toxicity, cell-based
# [9] = Cytotoxicity against human HGF cells assessed as inhibition of cell viability incubated for 24 hrs by MTS assay; format: toxicity, cell-based
# MeWo [10] = assay: Cytotoxicity against human MeWo cells assessed as inhibition of cell viability incubated for 24 hrs by MTS assay; format: functional, cell-based
# [11] = Synergistic cytotoxicity against human HGF cells assessed as inhibition of cell viability incubated for 24 hrs in presence of DOX by MTS assay; format: toxicity, cell-based
# MeWo [12] = assay: Synergistic cytotoxicity against human MeWo cells assessed as inhibition of cell viability incubated for 24 hrs in presence of DOX by MTS assay; format: functional, cell-based
# MeWo [13] = assay: Synergistic cytotoxicity against human MeWo cells assessed as inhibition of cell viability at 10 uM incubated for 24 hrs in presence of DOX by MTS assay; format: functional, cell-based
# [14] = Synergistic cytotoxicity against human HGF cells assessed as cell viability at 10 uM incubated for 24 hrs in presence of DOX by MTS assay relative to control; format: toxicity, cell-based; details: read-out: Activity
Structure (SMILES),pKi (Carbonic anhydrase 9),Activity (MeWo [1]),Activity (SK-BR-3 [2]),Activity (MG-63 [3]),Activity [4],also measured
COc1ccc(C2C=C(Nc3cccc(S(N)(=O)=O)c3)C(=O)N2c2cccc(S(N)(=O)=O)c2)cc1O (stereo unspecified),7.02,inactive,inactive,inactive,Non-toxic,–
NS(=O)(=O)c1cccc(NC2=CC(c3ccc(C(F)(F)F)cc3)N(c3cccc(S(N)(=O)=O)c3)C2=O)c1 (stereo unspecified),6.08,–,–,–,–,–
COc1cc(C2C=C(Nc3cccc(S(N)(=O)=O)c3)C(=O)N2c2cccc(S(N)(=O)=O)c2)ccc1O (stereo unspecified),6.43,–,–,–,–,–
COc1ccccc1C1C=C(Nc2cccc(S(N)(=O)=O)c2)C(=O)N1c1cccc(S(N)(=O)=O)c1 (stereo unspecified),7.03,–,–,–,–,–
NS(=O)(=O)c1cccc(NC2=CC(c3ccco3)N(c3cccc(S(N)(=O)=O)c3)C2=O)c1 (stereo unspecified),7.10,–,–,–,–,–
NS(=O)(=O)c1cccc(NC2=CC(c3ccc4c(c3)OCO4)N(c3cccc(S(N)(=O)=O)c3)C2=O)c1 (stereo unspecified),6.35,–,–,–,–,–
COc1ccc(C2C=C(Nc3cccc(S(N)(=O)=O)c3)C(=O)N2c2cccc(S(N)(=O)=O)c2)cc1OC (stereo unspecified),7.06,–,–,–,–,–

# Continued, in another order:
pKi (Carbonic anhydrase 9),Structure (SMILES),Activity (MeWo [1]),Activity (SK-BR-3 [2]),Activity (MG-63 [3]),Activity [4],also measured
7.28,COc1ccc(O)c(C2C=C(Nc3cccc(S(N)(=O)=O)c3)C(=O)N2c2cccc(S(N)(=O)=O)c2)c1 (stereo unspecified),–,–,–,–,–
6.27,NS(=O)(=O)c1cccc(NC2=CC(c3cc(C(F)(F)F)cc(C(F)(F)F)c3)N(c3cccc(S(N)(=O)=O)c3)C2=O)c1 (stereo unspecified),–,–,–,–,–
7.52,COc1cc(C2C=C(Nc3cccc(S(N)(=O)=O)c3)C(=O)N2c2cccc(S(N)(=O)=O)c2)cc(OC)c1O (stereo unspecified),inactive,inactive,inactive,Non-toxic,–
7.24,NS(=O)(=O)c1cccc(NC2=CC(c3ccccc3)N(c3cccc(S(N)(=O)=O)c3)C2=O)c1 (stereo unspecified),–,–,–,–,–
6.25,CCCCc1ccc(C2C=C(Nc3cccc(S(N)(=O)=O)c3)C(=O)N2c2cccc(S(N)(=O)=O)c2)cc1 (stereo unspecified),inactive,inactive,inactive,Non-toxic,Activity (MeWo [5]): Active; Activity (SK-BR-3 [6]): Active; Activity (MG-63 [7]): Active; Activity [8]: Toxic
7.30,NS(=O)(=O)c1cccc(NC2=CC(c3ccc(F)cc3)N(c3cccc(S(N)(=O)=O)c3)C2=O)c1 (stereo unspecified),inactive,inactive,inactive,Non-toxic,"IC50 at 24 h [9]: 85800 nM; pIC50 (MeWo [10]): 4.16; IC50 at 24 h [11]: 19600 nM; pIC50 (MeWo [12]): 4.95; Activity (MeWo [13]): Active; viability at 24 h, 10 µM [14]: > 70%"
8.15,COc1cccc(C2C=C(Nc3cccc(S(N)(=O)=O)c3)C(=O)N2c2cccc(S(N)(=O)=O)c2)c1O (stereo unspecified),inactive,inactive,inactive,Non-toxic,"IC50 at 24 h [9]: 70700 nM; pIC50 (MeWo [10]): 4.20; IC50 at 24 h [11]: 27500 nM; pIC50 (MeWo [12]): 4.95; Activity (MeWo [13]): Active; viability at 24 h, 10 µM [14]: > 70%"
6.21,CC(C)c1ccc(C2C=C(Nc3cccc(S(N)(=O)=O)c3)C(=O)N2c2cccc(S(N)(=O)=O)c2)cc1 (stereo unspecified),–,–,–,–,–
6.46,NS(=O)(=O)c1cccc(NC2=CC(c3ccccc3O)N(c3cccc(S(N)(=O)=O)c3)C2=O)c1 (stereo unspecified),inactive,inactive,inactive,Non-toxic,"Activity (MeWo [5]): Active; Activity [8]: Non-toxic; IC50 at 24 h [9]: 117000 nM; pIC50 (MeWo [10]): 4.03; IC50 at 24 h [11]: 36400 nM; pIC50 (MeWo [12]): 4.91; Activity (MeWo [13]): Active; viability at 24 h, 10 µM [14]: > 70%"
6.41,NS(=O)(=O)c1cccc(NC2=CC(c3ccc(Br)cc3)N(c3cccc(S(N)(=O)=O)c3)C2=O)c1 (stereo unspecified),–,–,–,–,–
6.46,N#Cc1ccc(C2C=C(Nc3cccc(S(N)(=O)=O)c3)C(=O)N2c2cccc(S(N)(=O)=O)c2)cc1 (stereo unspecified),–,–,–,–,–
